According to PubChem BioAssay (NCI):
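Interpolation was linear, between the two tested concentrations surrounding the appropriate level; five concentrations were tested over 48 hours in 96-well plates. TGI denotes the concentration required for complete inhibition of growth.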

Key:
Experiment in all cases: NCI-60 cell line screen, 48 h
SF-295 CNS = tested on: SF-295 CNS
PC-3 prostate = tested on: PC-3 prostate
ACHN renal = tested on: ACHN renal
COLO 205 colon = tested on: COLO 205 colon
HOP-92 NSCLC = tested on: HOP-92 NSCLC
HCC-2998 colon = tested on: HCC-2998 colon
NCI-H460 lung = tested on: NCI-H460 lung
NCI-H522 lung = tested on: NCI-H522 lung
NCI-H23 lung = tested on: NCI-H23 lung
RPMI-8226 leukemia = tested on: RPMI-8226 leukemia

Row | Structure (SMILES) | TGI (SF-295 CNS) | TGI (PC-3 prostate) | TGI (ACHN renal) | TGI (COLO 205 colon) | TGI (HOP-92 NSCLC) | TGI (HCC-2998 colon) | TGI (NCI-H460 lung) | TGI (NCI-H522 lung) | TGI (NCI-H23 lung) | TGI (RPMI-8226 leukemia)
1 | COC(=O)c1ccccc1C1CN=NC12Cc1cc(C)ccc1C2=O (stereo not given) | > 100 µM | > 100 µM | > 100 µM | > 100 µM | > 100 µM | > 100 µM | > 100 µM | > 100 µM | > 100 µM | > 100 µM
2 | COC(=O)C(CCSC)NC(=O)Cc1ccc(C(=O)c2ccccc2)cc1 (stereo not given) | > 100 µM | > 100 µM | > 100 µM | > 100 µM | > 100 µM | > 100 µM | > 100 µM | > 100 µM | > 100 µM | > 100 µM
3 | CCCCn1c2c(n(CCCC)c1=S)-c1c(n(CCCC)c(=S)n1CCCC)SSc1c(n(CCCC)c(=S)n1CCCC)-c1c(n(CCCC)c(=S)n1CCCC)SSc1c(n(CCCC)c(=S)n1CCCC)-c1c(n(CCCC)c(=S)n1CCCC)SS2 | > 37 µM | 18.9 µM | 11.1 µM | 14.7 µM | 3.53 µM | > 50 µM | > 50 µM | 1.86 µM | > 50 µM | > 50 µM
4 | N#C/C(N)=C(\C#N)NC(=O)C(=O)N/C(C#N)=C(\N)C#N | > 100 µM | > 100 µM | > 100 µM | > 100 µM | > 100 µM | > 100 µM | > 100 µM | > 100 µM | > 100 µM | > 100 µM
5 | CCCCCCCCCCNC(=O)CCC(NC(=O)c1ccc(N(C)Cc2cnc3nc(N)nc(N)c3n2)cc1)C(=O)NCCCCCCCCCC (stereo not given) | > 100 µM | 37.8 µM | > 100 µM | 15.2 µM | 27.1 µM | 48.6 µM | 13.1 µM | 16.6 µM | 54.4 µM | > 70.4 µM
6 | O=C1C(c2c(O)[nH]c3ccc(Br)cc23)=Nc2ccccc21 | 51 µM | 17.8 µM | 12.2 µM | 31.4 µM | 34.9 µM | 13.5 µM | 44.6 µM | 39.7 µM | 40.1 µM | > 100 µM
7 | CCOC(=O)c1ccc(N=c2sc3ccccc3nc2Nc2ccc(C(=O)OCC)cc2)cc1 | > 100 µM | > 100 µM | > 100 µM | > 100 µM | > 100 µM | > 100 µM | > 100 µM | 77.6 µM | > 100 µM | > 100 µM
8 | N#Cc1cnc(N)nc1NCC1(CO)CC(CCc2ccccc2)C1 (stereo not given) | > 100 µM | > 100 µM | > 100 µM | > 100 µM | > 100 µM | > 100 µM | > 100 µM | > 100 µM | > 100 µM | > 100 µM
9 | O=C1C(Cl)=C(Nc2ccc(S(=O)(=O)Nc3ccccn3)cc2)C(=O)c2ccccc21 | 35.2 µM | 27 µM | 31.2 µM | 27.8 µM | 15.4 µM | 24.8 µM | 19.2 µM | 13.7 µM | 25.2 µM | 15.4 µM
